Where two headings read alike, the source gives them in different places.
Legend:
Transporter, GABA = molecular target: T1, Transporter, GABA (Rattus norvegicus, UniProt P23978); assay: Radioligand binding 226400; conditions: 10 µM
T1 construct: Wistar Rat cerebral cortex; tissue Eurofins Panlabs 226400; host or cells: Wistar rat cerebral cortex

Adrenergic β2 = molecular target: T2, Adrenergic β2 (Homo sapiens, UniProt P07550); assay type: binding; conditions: 10 µM
T2 construct: host or cells: CHO cells

[1] = Human
[2] = Mouse
Endothelin ETB = molecular target: T3, Endothelin ETB (Homo sapiens, UniProt P24530); assay type: binding; conditions: 10 µM
T3 construct: host or cells: CHO-K1 cells

Adenosine A3 = Adenosine A3 (Homo sapiens, UniProt P0DMS8); assay type: binding; conditions: 10 µM
Cannabinoid CB1 = Cannabinoid CB1 (Homo sapiens, UniProt P21554); assay type: binding; conditions: 10 µM
E. coli UTI89 = assay: Human serum sensitization (MTT); assay type: cell-based, Escherichia coli; conditions: 50 µM, pooled human serum, vs DMSO p = 0.0067
Nicotinic Acetylcholine = assay: Radioligand binding 258590; parameters: species or system human; conditions: 10 µM
[3] = molecular target: Nicotinic Acetylcholine α1, Bungarotoxin (Homo sapiens, UniProt P02708+P07510+Q07001); assay type: binding; conditions: 10 µM
Opiate µ(OP3, MOP) = molecular target: T4, Opiate µ(OP3, MOP) (Homo sapiens, UniProt P35372); assay type: binding; conditions: 10 µM
T4 construct: host or cells: CHO-K1 cells

[4] = system: GABAA, Flunitrazepam, Central; assay: Radioligand binding 226600; parameters: species or system rat; conditions: 10 µM
[5] = molecular target: Transporter, Dopamine (DAT) (Homo sapiens, UniProt Q01959); assay type: binding; parameters: host or cells: CHO-K1; conditions: 10 µM
[6] = Human; remark: listed apart in the source
Histamine H3 = molecular target: T5, Histamine H3 (Homo sapiens, UniProt Q9Y5N1); assay: Radioligand binding 239820; conditions: 10 µM
T5 construct: host or cells: CHO-K1 cells

Prostanoid EP4 = molecular target: T6, Prostanoid EP4 (Homo sapiens, UniProt P35408); assay: Radioligand binding 268420; conditions: 10 µM
T6 construct: host or cells: Chem-1

[7] = system: K1 antigen of E. coli UTI89; assay: K1 antigen dot blot; assay type: cell-based, Escherichia coli; conditions: 100 µM
Procedure: K1 antigen was detected by dot blot assays of culture extracts probed with anti-K1 H46 serum. The assay was performed as previously described. The experiment was repeated twice with similar results, and a representative dot blot is shown.

GABAA, Muscimol, Central = assay type: binding, rat; conditions: 10 µM
Dopamine D4.2 = molecular target: T7, Dopamine D4.2 (Homo sapiens, UniProt P21917, DEL265-296); assay type: binding; conditions: 10 µM
T7 construct: host or cells: CHO-K1 cells

[8] = molecular target: T8, Epidermal Growth Factor (EGF) (Homo sapiens, UniProt P00533); assay: Radioligand binding 225510; conditions: 10 µM
T8 construct: Human A431 cells; host or cells: A431 cells

[9] = Mouse; remark: listed apart in the source
[10] = system: E. coli EV36 (K1:K-12 hybrid strain); assay: T7 phage counter assay; assay type: cell-based, Escherichia coli; conditions: average of at least 3 replicates ± SEM
Procedure: This secondary assay was performed as previously described and was used to distinguish compounds with phage inhibitory effects from true polysaccharide capsule inhibitors. […] Thus, the presence of a capsule inhibits T7-mediated lysis. In this assay, an increase in phage-induced lysis correlates to a decrease in capsule formation. […]. […] The positive control molecule C7 (100 µM final well concentration) was used in this screen.

Histamine H2 = Histamine H2 (Homo sapiens, UniProt P25021); assay: Radioligand binding 239710; parameters: host or cells: CHO-K1 cells; conditions: 10 µM
Adenosine A1 = molecular target: T9, Adenosine A1 (Homo sapiens, UniProt P30542); assay: Radioligand binding 200510; conditions: 10 µM
T9 construct: host or cells: CHO cells

Adrenergic α1A = molecular target: T10, Adrenergic α1A (Rattus norvegicus, UniProt P43140); assay: Radioligand binding 203100; conditions: 10 µM
T10 construct: Wistar Rat submaxillary gland; tissue Eurofins Panlabs (assay Cat #) 203100; host or cells: Wistar rat submaxillary gland

Bradykinin B2 = Bradykinin B2 (Homo sapiens, UniProt P30411); assay type: binding; parameters: host or cells: Chem-1 cells; conditions: 10 µM
[11] = molecular target: Calcium Channel L-Type, Benzothiazepine (Rattus norvegicus, UniProt P22002); assay type: binding; conditions: 10 µM
[12] = molecular target: T11, Androgen (Testosterone) AR (Rattus norvegicus, UniProt P15207); assay type: binding; conditions: 10 µM
T11 construct: Eurofins Panlabs (assay Cat #) 285010; host or cells: E. coli

[13] = molecular target: T12, Leukotriene, Cysteinyl CysLT1 (Homo sapiens, UniProt Q9Y271); assay: Radioligand binding 250460; conditions: 10 µM
T12 construct: host or cells: CHO-K1 cells

Dopamine D3 = molecular target: T13, Dopamine D3 (Homo sapiens, UniProt P35462); assay type: binding; conditions: 10 µM
T13 construct: host or cells: CHO cells

Tachykinin NK1 = molecular target: T14, Tachykinin NK1 (Homo sapiens, UniProt P25103); assay: Radioligand binding 255520; conditions: 10 µM
T14 construct: host or cells: CHO

Imidazoline I2, Central = assay: Radioligand binding 241000; parameters: species or system rat; conditions: 10 µM
Calcium Channel N-Type = Calcium Channel N-Type (Rattus norvegicus, UniProt Q02294); assay: biochemical; assay type: binding; conditions: 10 µM

T8 sequence (P00533 25-1210): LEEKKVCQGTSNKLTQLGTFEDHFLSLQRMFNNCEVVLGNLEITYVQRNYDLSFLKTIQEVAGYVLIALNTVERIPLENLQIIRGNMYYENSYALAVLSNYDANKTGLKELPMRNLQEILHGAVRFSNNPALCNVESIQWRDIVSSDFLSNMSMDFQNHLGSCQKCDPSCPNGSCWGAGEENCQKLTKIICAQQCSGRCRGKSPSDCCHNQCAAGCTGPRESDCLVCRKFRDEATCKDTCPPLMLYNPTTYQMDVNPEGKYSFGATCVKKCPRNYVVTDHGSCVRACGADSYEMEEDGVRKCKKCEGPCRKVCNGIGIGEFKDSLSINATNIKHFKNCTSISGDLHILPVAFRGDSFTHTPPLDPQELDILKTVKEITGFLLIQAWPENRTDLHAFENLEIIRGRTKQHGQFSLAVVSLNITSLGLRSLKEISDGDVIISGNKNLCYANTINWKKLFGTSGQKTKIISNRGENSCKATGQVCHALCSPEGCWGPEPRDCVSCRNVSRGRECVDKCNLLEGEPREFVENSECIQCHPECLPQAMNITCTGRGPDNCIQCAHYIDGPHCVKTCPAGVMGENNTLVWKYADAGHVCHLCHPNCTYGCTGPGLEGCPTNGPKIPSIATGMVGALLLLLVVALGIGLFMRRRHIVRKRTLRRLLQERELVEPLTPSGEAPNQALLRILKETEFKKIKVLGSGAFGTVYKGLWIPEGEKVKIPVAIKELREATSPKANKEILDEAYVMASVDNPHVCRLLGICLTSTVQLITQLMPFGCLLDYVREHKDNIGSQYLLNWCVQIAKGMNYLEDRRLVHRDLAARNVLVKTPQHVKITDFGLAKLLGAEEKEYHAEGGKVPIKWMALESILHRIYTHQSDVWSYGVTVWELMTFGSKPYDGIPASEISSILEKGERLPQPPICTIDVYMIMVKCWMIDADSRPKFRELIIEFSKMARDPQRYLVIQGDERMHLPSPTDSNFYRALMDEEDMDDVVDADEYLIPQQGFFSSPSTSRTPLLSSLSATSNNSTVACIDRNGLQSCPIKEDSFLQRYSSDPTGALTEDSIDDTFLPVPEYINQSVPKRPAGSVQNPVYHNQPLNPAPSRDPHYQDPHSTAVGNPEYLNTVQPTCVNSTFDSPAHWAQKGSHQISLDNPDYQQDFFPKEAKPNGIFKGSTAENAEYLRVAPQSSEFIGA
T14 sequence (P25103 whole entry): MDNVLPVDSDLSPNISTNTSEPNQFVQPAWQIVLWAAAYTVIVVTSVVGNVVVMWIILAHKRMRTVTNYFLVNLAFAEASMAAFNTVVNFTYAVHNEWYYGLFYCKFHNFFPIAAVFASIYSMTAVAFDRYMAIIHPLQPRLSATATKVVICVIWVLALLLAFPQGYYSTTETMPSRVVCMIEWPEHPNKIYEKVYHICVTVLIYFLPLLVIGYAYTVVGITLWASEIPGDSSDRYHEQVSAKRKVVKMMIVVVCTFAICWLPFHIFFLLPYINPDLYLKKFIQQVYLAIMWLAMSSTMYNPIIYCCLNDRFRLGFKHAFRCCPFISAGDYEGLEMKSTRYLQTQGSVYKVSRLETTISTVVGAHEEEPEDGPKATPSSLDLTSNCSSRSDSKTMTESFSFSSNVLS
T2 sequence (P07550 whole entry): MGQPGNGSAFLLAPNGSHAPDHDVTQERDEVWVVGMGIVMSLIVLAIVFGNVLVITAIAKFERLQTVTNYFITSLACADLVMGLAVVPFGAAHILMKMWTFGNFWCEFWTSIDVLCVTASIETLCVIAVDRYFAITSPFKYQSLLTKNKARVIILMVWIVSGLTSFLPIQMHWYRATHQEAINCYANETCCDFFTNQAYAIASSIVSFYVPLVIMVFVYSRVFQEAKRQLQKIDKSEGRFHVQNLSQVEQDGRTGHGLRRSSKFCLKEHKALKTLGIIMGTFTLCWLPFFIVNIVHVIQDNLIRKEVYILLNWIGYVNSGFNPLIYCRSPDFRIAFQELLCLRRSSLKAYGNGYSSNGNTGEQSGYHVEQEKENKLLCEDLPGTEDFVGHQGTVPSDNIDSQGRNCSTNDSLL
T7 sequence (P21917 other isoform, or with tags, fused parts or gaps DEL265-296): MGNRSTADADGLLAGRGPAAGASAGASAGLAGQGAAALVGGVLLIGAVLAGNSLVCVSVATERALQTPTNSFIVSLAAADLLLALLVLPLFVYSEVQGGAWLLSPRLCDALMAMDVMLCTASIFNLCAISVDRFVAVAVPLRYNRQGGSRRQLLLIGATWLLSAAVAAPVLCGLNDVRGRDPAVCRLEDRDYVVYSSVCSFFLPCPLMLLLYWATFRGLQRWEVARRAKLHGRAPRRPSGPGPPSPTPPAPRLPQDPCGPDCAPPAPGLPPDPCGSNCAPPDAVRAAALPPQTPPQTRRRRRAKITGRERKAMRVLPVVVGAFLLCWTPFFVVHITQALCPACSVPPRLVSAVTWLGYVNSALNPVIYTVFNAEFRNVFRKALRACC
Sequence of Histamine H2 (P25021 whole entry): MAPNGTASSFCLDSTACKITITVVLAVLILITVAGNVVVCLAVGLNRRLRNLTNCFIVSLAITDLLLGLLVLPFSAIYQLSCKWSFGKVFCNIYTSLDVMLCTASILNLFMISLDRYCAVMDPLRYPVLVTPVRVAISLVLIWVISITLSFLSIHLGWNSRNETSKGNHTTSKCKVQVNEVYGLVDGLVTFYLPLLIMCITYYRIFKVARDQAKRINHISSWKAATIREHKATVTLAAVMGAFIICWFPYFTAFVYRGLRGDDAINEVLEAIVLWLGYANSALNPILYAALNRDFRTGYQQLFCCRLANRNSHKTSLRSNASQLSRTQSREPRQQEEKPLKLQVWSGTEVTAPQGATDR
Sequence of Nicotinic Acetylcholine α1, Bungarotoxin (P11230 24-501): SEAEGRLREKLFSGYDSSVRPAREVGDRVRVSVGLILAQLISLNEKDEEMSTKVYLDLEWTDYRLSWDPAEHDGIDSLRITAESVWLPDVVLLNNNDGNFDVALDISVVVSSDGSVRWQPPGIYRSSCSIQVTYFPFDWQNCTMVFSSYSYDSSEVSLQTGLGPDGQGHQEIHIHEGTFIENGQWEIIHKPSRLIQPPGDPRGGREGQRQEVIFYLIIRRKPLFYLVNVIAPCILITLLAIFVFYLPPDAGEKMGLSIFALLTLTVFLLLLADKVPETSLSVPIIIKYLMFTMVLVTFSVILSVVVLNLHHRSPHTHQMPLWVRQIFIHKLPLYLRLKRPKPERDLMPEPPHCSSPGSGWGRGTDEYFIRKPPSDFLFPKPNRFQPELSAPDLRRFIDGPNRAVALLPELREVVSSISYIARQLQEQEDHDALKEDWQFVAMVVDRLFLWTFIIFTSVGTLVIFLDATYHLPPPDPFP
Sequence of Nicotinic Acetylcholine α1, Bungarotoxin (P02708 21-457): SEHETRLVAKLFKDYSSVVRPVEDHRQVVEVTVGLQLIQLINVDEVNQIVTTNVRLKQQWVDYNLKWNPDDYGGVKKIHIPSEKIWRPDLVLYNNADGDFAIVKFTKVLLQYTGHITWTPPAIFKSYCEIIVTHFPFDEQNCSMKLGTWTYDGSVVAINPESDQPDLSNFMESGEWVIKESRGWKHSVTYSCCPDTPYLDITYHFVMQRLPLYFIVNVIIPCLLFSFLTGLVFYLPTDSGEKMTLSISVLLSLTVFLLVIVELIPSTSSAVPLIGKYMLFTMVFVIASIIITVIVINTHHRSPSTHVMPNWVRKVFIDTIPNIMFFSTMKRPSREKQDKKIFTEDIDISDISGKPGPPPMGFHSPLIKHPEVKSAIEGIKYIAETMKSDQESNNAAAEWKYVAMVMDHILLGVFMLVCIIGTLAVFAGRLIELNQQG
Sequence of Nicotinic Acetylcholine α1, Bungarotoxin (P07510 23-517): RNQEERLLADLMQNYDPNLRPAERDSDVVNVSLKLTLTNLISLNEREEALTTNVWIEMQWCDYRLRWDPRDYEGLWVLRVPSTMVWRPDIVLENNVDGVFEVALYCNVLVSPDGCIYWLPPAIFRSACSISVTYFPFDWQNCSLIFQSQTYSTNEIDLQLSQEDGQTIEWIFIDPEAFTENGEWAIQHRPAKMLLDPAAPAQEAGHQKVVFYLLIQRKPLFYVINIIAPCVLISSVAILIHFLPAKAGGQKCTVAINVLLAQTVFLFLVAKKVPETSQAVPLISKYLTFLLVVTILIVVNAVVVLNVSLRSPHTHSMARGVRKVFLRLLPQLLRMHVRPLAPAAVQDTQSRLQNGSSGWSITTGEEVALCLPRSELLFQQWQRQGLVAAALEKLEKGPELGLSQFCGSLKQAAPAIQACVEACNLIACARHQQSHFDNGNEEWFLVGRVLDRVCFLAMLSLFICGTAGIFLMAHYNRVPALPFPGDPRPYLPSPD
Sequence of Nicotinic Acetylcholine α1, Bungarotoxin (Q07001 22-517): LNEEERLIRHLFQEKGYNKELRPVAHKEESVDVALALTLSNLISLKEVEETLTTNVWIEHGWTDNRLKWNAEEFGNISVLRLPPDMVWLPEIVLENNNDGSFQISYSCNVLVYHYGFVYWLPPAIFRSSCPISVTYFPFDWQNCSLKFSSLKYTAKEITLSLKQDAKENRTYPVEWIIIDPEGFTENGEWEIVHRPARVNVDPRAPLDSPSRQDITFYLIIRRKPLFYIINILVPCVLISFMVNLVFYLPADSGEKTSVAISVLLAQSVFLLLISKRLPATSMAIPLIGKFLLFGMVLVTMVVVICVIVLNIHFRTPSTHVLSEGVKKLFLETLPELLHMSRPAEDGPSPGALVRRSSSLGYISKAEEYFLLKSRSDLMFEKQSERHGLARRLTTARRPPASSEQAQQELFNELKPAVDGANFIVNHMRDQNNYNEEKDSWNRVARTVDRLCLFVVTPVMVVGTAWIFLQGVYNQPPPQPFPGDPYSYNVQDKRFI
T12 sequence (Q9Y271 whole entry): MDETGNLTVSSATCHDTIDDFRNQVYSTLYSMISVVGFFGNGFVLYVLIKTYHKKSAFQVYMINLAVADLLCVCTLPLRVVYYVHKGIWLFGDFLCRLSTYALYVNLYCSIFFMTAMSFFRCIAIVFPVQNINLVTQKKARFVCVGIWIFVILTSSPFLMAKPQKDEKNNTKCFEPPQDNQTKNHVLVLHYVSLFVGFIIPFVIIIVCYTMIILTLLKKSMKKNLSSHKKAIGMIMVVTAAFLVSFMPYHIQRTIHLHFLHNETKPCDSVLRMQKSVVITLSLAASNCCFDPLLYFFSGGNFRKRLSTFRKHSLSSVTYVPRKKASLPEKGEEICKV

For `CCOc1ccc(-c2cc(NC(=O)c3c(F)cccc3F)c(C(=O)O)s2)cc1` [DU011], the “% Inh.” value (Transporter, GABA) was -4%, the “% Inh.” value (Adrenergic β2) was 8% and the “Plasma Stability, percent remaining at 3 hrs” value [1] was 95.31%. For the same compound, the “Plasma Stability, percent remaining at 3 hrs” value [2] was 78.39%, the “% Inh.” value (Endothelin ETB) was 3% and the “% Inh.” value (Adenosine A3) was -5%. For the same compound, the “% Inh.” value (Cannabinoid CB1) was 20%, the “serum-mediated killing of UPEC (MTT)” value (E. coli UTI89) was “further increased serum-mediated killing” and the “% Inh.” value (Nicotinic Acetylcholine) was 22%. The “% Inh.” value [3] was 8%, the “% Inh.” value (Opiate µ(OP3, MOP)) was 1% and the “% Inh.” value [4] was 12%. The “% Inh.” value [5] was -13%, the “Hepatic Microsome Stability, percent remaining at 1 hr” value [6] was 89.64% and the “% Inh.” value (Histamine H3) was 13%. For the same compound, the “% Inh.” value (Prostanoid EP4) was -4%, the “K1 reactive material, whole-cell anti-K1 dot blot” value [7] was “reduces K1 reactive material to levels comparable to those of genetic capsule mutants” and the “% Inh.” value (GABAA, Muscimol, Central) was 4%. The “% Inh.” value (Dopamine D4.2) was 0%, the “% Inh.” value [8] was 8% and the “Hepatic Microsome Stability, percent remaining at 1 hr” value [9] was 74.32%. For the same compound, the IC50 [10] was 690 ± 780 nM, the “% Inh.” value (Histamine H2) was 2% and the “% Inh.” value (Adenosine A1) was -17%. For the same compound, the “% Inh.” value (Adrenergic α1A) was -3%, the “% Inh.” value (Bradykinin B2) was 4% and the “% Inh.” value [11] was -1%. For the same compound, the “% Inh.” value [12] was 5%, the “% Inh.” value [13] was 19% and the “% Inh.” value (Dopamine D3) was 6%. The “% Inh.” value (Tachykinin NK1) was 7%, the “% Inh.” value (Imidazoline I2, Central) was -23% and the “% Inh.” value (Calcium Channel N-Type) was -18%.
